Test systems include Escherichia coli MG1655; Vibrio cholerae; Klebsiella pneumoniae; Escherichia coli; Proteus mirabilis; Staphylococcus sciuri; Staphylococcus simulans; Microsporum canis.
What all share (test): ≥ marks a high value that may be exact or a test limit, other limits are often not marked, values filed in µg/mL are converted to µM
The subject of test [1] is Escherichia coli K12 MG1655.
Test [2] deals with Pseudomonas aeruginosa MTCC 3542.
Test [3] concerns Pluralibacter gergoviae MTCC 3826.
Test [4] relates to Salmonella enterica subsp. enterica serovar Typhimurium ATCC 14028.
Test [5] has as its system Salmonella enterica MTCC 9844.
Test [6] concerns Staphylococcus aureus MTCC 3160.
In test [7] the test system is Klebsiella pneumoniae MTCC 7407.
In test [8] the test system is Klebsiella aerogenes MTCC 111.
The subject of test [9] is Corynebacterium glutamicum MTCC 2679.
Test [10] concerns Citrobacter koseri MTCC 1657.
Test [11] deals with Alcaligenes faecalis MTCC 1937.
For test [12], the system named is Shigella boydii MTCC 11947.
Test [13] has as its system Klebsiella oxytoca MTCC 2275.
The subject of test [14] is Staphylococcus haemolyticus MTCC 3383.
The subject of test [15] is Haemophilus influenzae MTCC 621.
The test system of test [16] is Citrobacter freundii MTCC 1658.
The test system of test [17] is Vibrio cholerae MTCC 3904.
For test [18], the system named is Enterococcus faecalis MTCC 439.
Test [19] relates to Acinetobacter baumannii MTCC 9829.
Test [20] deals with Shigella flexneri MTCC 1457.
In test [21] the test system is Proteus mirabilis MTCC 3158.
The subject of test [22] is Bordetella bronchiseptica MTCC 6837.
Test [23] has as its system Stenotrophomonas maltophilia MTCC 1890.
In test [24] the test system is Alkalihalobacillus alcalophilus MTCC 860.
Test [25] has as its system Proteus vulgaris MTCC 1771.
Test [26] has as its system Staphylococcus aureus ATCC 43300.
Test [27] has as its system Bacillus subtilis MTCC 14416.
Test [28] concerns Enterococcus faecalis ATCC 29212.
For test [29], the system named is Staphylococcus aureus MTCC 9542.
Test [30] has as its system Pseudomonas aeruginosa ATCC 27853.
In test [31] the test system is Cryptococcus neoformans B3501.
Test [32] concerns Pseudomonas aeruginosa PAO1.
For test [33], the system named is Staphylococcus pseudintermedius MW767056.
The test system of test [34] is Pseudomonas aeruginosa PA006.
Test [35] has as its system Pseudomonas aeruginosa PA002.
The subject of test [36] is Klebsiella pneumoniae ATCC 13833.
Test [37] concerns Staphylococcus epidermidis ATCC 12228.
The subject of test [38] is Trichophyton rubrum ATCC 28189.
The subject of test [39] is Trichophyton mentagrophytes.
The subject of test [40] is Staphylococcus pseudintermedius.
Test [41] concerns Staphylococcus haemolyticus.
Test [42] has as its system Microsporum canis MW768151.
The test system of test [43] is Escherichia coli ATCC 25922.
For test [44], the system named is Staphylococcus cohnii MW767053.
Test [45] has as its system Candida albicans ATCC 90028.

The text below walks through data of DBAASP.

≈ marks a conversion by molar mass, not a printed value. Where “and” joins values, the source holds several entries; their conditions need not be identical. Identical values can stand only once.

As to `CC[C@H](C)[C@H](NC(=O)[C@H](C)NC(=O)[C@@H]1CCCN1C(=O)[C@@H]1CCCN1C(=O)[C@H](CC(C)C)NC(=O)[C@H](Cc1cnc[nH]1)NC(=O)[C@H](CCCCN)NC(=O)[C@H](C)NC(=O)[C@@H](NC(=O)CNC(=O)[C@H](CCCCN)NC(=O)[C@H](C)NC(=O)[C@@H](NC(=O)[C@@H](N)CCC(=O)O)[C@@H](C)O)C(C)C)C(=O)N[C@@H](C)C(=O)O` [ETAKGVAKHLPPAIA], the MIC in [1] is no less than 85.2 µM; in [2], no less than 85.2 µM; in test [3], no less than 85.2 µM; in test [4], greater than 85.2 µM; in [5], no less than 85.2 µM; in test [6], no less than 85.2 µM. Moreover, the MIC in test [7], in test [8], in [9], in [10], in [11] and in test [12] was no less than 85.2 µM each time. Besides, the MIC in test [13], in [14], in test [15], in [16], in [17] and in test [18] was no less than 85.2 µM in each case. The MIC in test [19], in [20], in test [21], in test [22], in test [23] and in [24] was no less than 85.2 µM throughout. Further, the MIC in test [25] was no less than 85.2 µM.

With `CC[C@H](C)[C@H](N)C(=O)N[C@@H](C)C(=O)NCC(=O)N[C@@H](CC(C)C)C(=O)N[C@@H](C)C(=O)N[C@@H](C)C(=O)N[C@@H](CC(N)=O)C(=O)N[C@@H](Cc1ccccc1)C(=O)N[C@@H](CC(C)C)C(=O)N1CCC[C@H]1C(=O)N[C@@H](CCC(N)=O)C(=O)N[C@H](C(=O)N[C@@H](CC(C)C)C(=O)N[C@@H](CS)C(=O)N[C@@H](CCCCN)C(=O)N[C@H](C(=O)N[C@@H](C)C(=O)N[C@@H](CCCN=C(N)N)C(=O)N[C@@H](CCCCN)C(N)=O)[C@@H](C)CC)[C@@H](C)CC` [IAGLAANFLPQILCKIARK], the MIC stood at 24.5 µM (≈ 50 µg/mL) in test [26]; 24.5 µM (≈ 50 µg/mL) in [27]; 12.3 µM (≈ 25 µg/mL) against Escherichia coli MG1655; 24.5 µM (≈ 50 µg/mL) in the test on Vibrio cholerae; 24.5 µM (≈ 50 µg/mL) in test [28]; 24.5 µM (≈ 50 µg/mL) in [29]. The molecule also yielded an MIC in [30] greater than 49 µM.

With `CC[C@H](C)[C@H](NC(=O)[C@H](Cc1ccccc1)NC(=O)CNC(=O)[C@H](CCCCN)NC(=O)[C@@H](NC(=O)[C@H](Cc1ccccc1)NC(=O)[C@H](CCCCN)NC(=O)[C@H](CCCN=C(N)N)NC(=O)[C@@H](NC(=O)[C@@H](NC(=O)[C@H](CCCN=C(N)N)NC(=O)[C@@H](NC(=O)[C@H](C)NC(=O)[C@H](Cc1c[nH]c2ccccc12)NC(=O)[C@@H](N)CCCCN)C(C)C)[C@@H](C)CC)[C@@H](C)CC)[C@@H](C)CC)C(=O)N[C@@H](CO)C(N)=O` [KWAVRIIRKFIKGFIS], the MIC was 5.77 µM (≈ 11.3 µg/mL) against Klebsiella pneumoniae; 1.44 µM and 2.88 µM in the test with Escherichia coli; 2 µM (≈ 3.92 µg/mL) in test [31]; 4.08 µM (≈ 8 µg/mL) in test [32]; no less than 130 µM in test [33]; no less than 65.2 µM in the test with Proteus mirabilis. Further, the MIC in [34] is 2.04 µM (≈ 4 µg/mL); against Staphylococcus sciuri, no less than 130 µM; in test [35] it was 8.15 µM (≈ 16 µg/mL); in test [36], 1 µM (≈ 1.96 µg/mL); in test [37], 1 µM (≈ 1.96 µg/mL); in test [38], 8 µM (≈ 15.7 µg/mL). The MIC with Staphylococcus simulans is no less than 32.6 µM; in test [39] it was 0.51 µM (≈ 1 µg/mL); in test [28], 8.15 µM (≈ 16 µg/mL); in [40], no less than 32.6 µM; in test [41] it was no less than 65.2 µM; in test [42], 0.51 µM (≈ 1 µg/mL). Also, the MIC in test [43] was 2.04 µM and 2 µM; in the test on Microsporum canis it was 1.44 µM (≈ 2.83 µg/mL); in test [44] it was 16.3 µM (≈ 32 µg/mL); in test [30], 4.08 µM and 1.67 µM and 4 µM; in [45], 1.67 µM (≈ 3.28 µg/mL).
